What was measured:
[1] = test system: paclitaxel-induced mechanical allodynia in male Balb/C mice; test: Paclitaxel-induced mechanical allodynia, Dynamic Plantar Aesthesiometer, DF3966A; format: in vivo; settings: 30 mg/kg/os twice daily day 1 to 14; days 3, 5, 7, 10 and 14
Description: (§1) For the experiments with DF3966A, animals were housed in the animal care facility of the Department of Pharmacy of the University of Naples, Italy, in a room with controlled temperature (22±1° C.), humidity (60±10%) and light (12 h per day); food and water were available ad libitum. All behavioural tests were performed between 9:00 AM and 5:00 PM, and the animals were used only once. Animal care and manipulations were conducted in conformity with International and National law and policies (EU Directive 2010/63/EU for animal experiments, ARRIVE guidelines and the Basel declaration including the 3R concept). The procedure reported here were approved by the Institutional Committee on the Ethics of Animal Experiments (CVS) of the University of Naples Federico II and by Ministero della Salute under protocol n. 2014-00884607.
(§2) The protocol used was performed according POLOMANO et al., 2001, adapted to mice. The animals received paclitaxel 4 mg/kg intraperitoneally (i.p.) for four alternate days (days 1, 3, 5, and 7). During treatment period, mechanical and cold allodynia were measured 4 hours after the injection of paclitaxel.
DF3966A was administrated 30 mg/kg/os from 1st at 14th day (twice daily; 8.00 am and 20.00 pm). […]
In DF3966A experiments, sensitivity to tactile stimulation was measured using the Dynamic Plantar Aesthesiometer (DPA, Ugo Basile, Italy). […]

[2] = test system: paclitaxel-induced cold allodynia in male Balb/C mice; test: Paclitaxel-induced cold allodynia, DF3966A; format: in vivo; settings: 30 mg/kg/os twice daily day 1 to 14; days 3, 5, 7, 10 and 14
Description: as §1
as §2, with “paclitaxel. […]” for “paclitaxel.”
In the same apparatus of von Frey test, and nearly 15 minutes after the mechanical test, was performed the acetone test. […] All movements as licking, flinching or lifting of paw were recorded with a chronometer in a total testing time of 2 minutes.

Structure (SMILES): C[C@H](c1ccc(Nc2nc(C(F)(F)F)cs2)cc1)c1nnn[nH]1 [DF3966A, 1-N-[4-[(1R)-1-(1H-tetrazol-5-yl)ethyl]phenyl}-4-(trifluoromethyl)-11,3-thiazol-2-amine]
- mechanical allodynia vs vehicle control animals [1]: significant reduction of mechanical allodynia
- cold allodynia vs vehicle control animals [2]: significant reduction of cold allodynia
